From ChEMBL document CHEMBL3507680, “University of Dundee, Gates Library screen for HepG2 cell viability” come the findings set out here.

The series in a line: Human HepG2 cell viability assay in 384 well format. Format: toxicity, cell-based. Also on record: dose 125 nL, time 70.5 hour; concentration not given beside the values. The following applies: HepG2 cells, read-out: Inhibition.

Molecules are shown by their SMILES.

Take `CS(=O)(=O)CCC(=O)N1C[C@@H]2CC[C@H](C1)N(Cc1ccccn1)C2=O`: the cytotoxicity at 70.5 h amounted to 14.6%.
The figure for `Cc1cccnc1NCCNc1cc(C(C)C)nc2ccnn12` is -11.6%.
The same measure for `CN(C)c1ccc(CN2CCC(C(O)Cc3ccccc3)CC2)cn1` (configuration not stated): -3.93%; for `c1cn(Cc2nnc(C3CCN(C4CCNCC4)CC3)n2C2CC2)cn1`: -1.79%; for `CN(C(=O)CSc1ccccn1)C1CCCN(CCc2ccccc2)C1` (configuration not stated): -7.26%.
The same measure for `CCCN1CC2(CCN(c3ccc(C(C)=O)cn3)CC2)CC1C(=O)O` (configuration not stated): -9.66%; for `CCC1C=CCN1C(=O)c1cc(COc2ccccc2OC)[nH]n1` (configuration not stated): -11.7%.
`COc1ccc(CN2CCN(C3CCc4ccccc4C3)CC2)cc1O` (configuration not stated): the cytotoxicity at 70.5 h was found to be 3.2%.
On to `C[C@@H]1CN(C(=O)C2CCS(=O)(=O)CC2)C[C@@]1(O)C1CC1`, for which the cytotoxicity at 70.5 h was -19.6%.
The same measure for `Cc1ccc2c(c1)cc(CN1CC[C@](C)(O)[C@H](C)C1)n2C`: -0.93%.
For `CC(C)c1noc(-c2ccc(NCc3noc(C(C)C)n3)nc2)n1`, the cytotoxicity at 70.5 h is -5.44%.
The figure for `Cc1csc(S(=O)(=O)N2CCN(C)C3(CCC(=O)N(C)CC3)C2)c1` (configuration not stated) is -11.5%; for `Cc1cc(C)n(CC(C)NCc2nncn2C2CCCCC2)n1` (configuration not stated) it is -7.66%.
The same measure for `Cc1ncc(CC(=O)N2CCCC(COc3ccccc3F)C2)c(=O)[nH]1` (configuration not stated): -9.07%.
The same measure for `CN1CC2(CCN(C(=O)c3ccc4nonc4c3)CC2)CC1=O`: -11.3%; for `Cc1ncsc1CCN(C)C(=O)CN1CCCCCC1=O`: -2.38%.
Turning to `O=C1NCC2(CCCN(c3ncnc4c3CCC4)CC2)O1` (configuration not stated), the cytotoxicity at 70.5 h worked out at 2.31%.
The same measure for `CCc1ccc2nc(C)cc(C(=O)NC3CCC(=O)N(C)C3)c2c1` (configuration not stated): -4.56%; for `Cc1cc(C(F)(F)F)nc(CCNC(C)Cn2nc(C)cc2C)n1` (configuration not stated): -16.8%; for `Cc1ccc(S(N)(=O)=O)cc1C(=O)N1CCc2c(ncnc2N(C)C)C1`: 0.0385%.
The figure for `CCOCCC(=O)NCC1CCCO1` (configuration not stated) is -6.72%; for `CCN(CC)CCn1ccnc1-c1cccc(C#N)c1` it is -4.77%.
The same measure for `CCn1c(CC2CCN(S(=O)(=O)c3cccs3)CC2)nn(C)c1=O`: 10.6%; for `Cc1nnc(SCCNC(=O)Cn2cnc3ccccc3c2=O)s1`: -4.19%.
As to `CCC[C@H]1CN(C(=O)c2cc(-c3cccs3)n(C)n2)C[C@@H]1N`, the cytotoxicity at 70.5 h was -0.00623%.
The same measure for `Cc1nsc(NC(=O)N2CCCC2C)n1` (configuration not stated): 2.78%.
The figure for `CCC(=O)N1CCCC(Cn2cc(-c3ccc(F)cc3)nn2)C1` (configuration not stated) is -6.83%; for `COc1ccccc1-c1ccc(NCc2cn3c(n2)SCC3)nn1` it is -7.12%; for `O=C(c1ccc(=O)[nH]c1)N1CCc2c(nc(-c3cccnc3)[nH]c2=O)C1` it is -3.02%.
The same measure for `O=C1CCc2ccccc2N1CCCn1cnnn1`: -7.93%; for `COCCCN(Cc1cnc(N2CCCC2)nc1)C1CCN(C)CC1`: -20.3%.
Turning to `Cc1cnc(CNCc2cnc(-c3ccccc3C)s2)cn1`, the cytotoxicity at 70.5 h was -1.03%.
The same measure for `CCN(Cc1noc(CC(C)C)n1)Cc1cc2ccc(F)cc2[nH]c1=O`: 0.157%.
The figure for `COc1cccc(OCC(=O)N2CCC3(CC2)[C@H](O)C[C@@H]3OC)c1` is -5.93%.
The figure for `Cc1ccnn1CCC(=O)N1CCOC(CCc2ccccc2)C1` (configuration not stated) is -7.51%; for `COCCCN1CC2(CCN(Cc3cc(C(C)C)no3)CC2)CC1=O` it is 0.169%; for `N#Cc1cccc(N2CCCC3(CCC(=O)N(C4CCCC4)C3)C2)n1` (configuration not stated) it is 4.95%.
Consider `CN(C)C(=O)c1noc2c1CN(C(=O)CCCN1CCCCC1)CC2`, for which the cytotoxicity at 70.5 h was 10.8%.
The same measure for `CCC/C=C/c1ccc(CN2CCN(C)CC2)cn1`: 26%.
The same measure for `CN(C)CCN1CC(C(=O)N2CCC(c3cc(=O)[nH]cn3)CC2)CC1=O` (configuration not stated): 3.73%; for `O=C(Nc1ccc(S(=O)(=O)Nc2ccccc2)cc1)N1CCCC1`: -11.6%; for `CCCN1CCC(CC(=O)N(C)CC(=O)c2ccc(O)cc2)CC1`: -12.2%.
The same measure for `CO[C@H]1CN(C(=O)c2ccc(-c3cc[nH]n3)cc2)CC[C@H]1N`: -8.35%; for `CCOc1cc(CNCc2cnc(C)cn2)c(Cl)cc1OC(C)C`: 3.1%; for `Cc1ocnc1C(=O)N[C@H]1CN(CC2CCC2)C[C@@H]1C(C)C`: -1.41%.
For the molecule `CC1(C)CN(c2cc(C3CC3)ncn2)C[C@]1(C)O`, the cytotoxicity at 70.5 h amounted to 21.7%.
The figure for `CN(C)C(C(=O)N1CCSCC1)c1ccccc1F` (configuration not stated) is -5.06%.
The same measure for `Cc1cc(C(=O)N2C[C@H](C(C)C)[C@@H](N(C)C)C2)cs1`: -2.9%; for `COc1ccc(OC2CCN(C(=O)c3cnc(C)s3)CC2)cc1`: -4.93%.
The figure for `COc1ccc(N2CCN(C(=O)CCCc3cn[nH]c3)CC2=O)cc1` is 24.3%.
With `COc1cc(-n2cc(CCO)cn2)ccc1NC(C)=O`, the cytotoxicity at 70.5 h was -9.17%.
The figure for `COC(=O)c1cc(C)nc(N2CCN(Cc3cc(C(C)C)no3)CC2)n1` is -12.8%; for `Cc1nc(NCCc2noc(C3CCCO3)n2)c2sccc2n1` (configuration not stated) it is 49.7%; for `Cc1nc(C)c(C(=O)N2C[C@@H](C(=O)O)[C@H](C3CC3)C2)s1` it is -1.71%.
With `CCC(=O)N1CCN(C(=O)Nc2cccc(C#N)c2)[C@H]2CS(=O)(=O)C[C@H]21`, the cytotoxicity at 70.5 h was -15.6%.
Take `CCCc1cc(C(=O)N2CCC3(CCCN(CCO)C3=O)C2)cs1` (configuration not stated): the cytotoxicity at 70.5 h is -0.486%.
The figure for `CCNC(=O)[C@@H]1C[C@@H](N)CN1Cc1ccc(Sc2ccc(C)cc2)o1` is -4.77%.
Consider `Cc1nc(CNC(=O)c2cc(COc3ccccc3F)[nH]n2)n[nH]1`, for which the cytotoxicity at 70.5 h stood at 17.2%.
The figure for `CN(CCc1ccccc1)Cc1cc(C(=O)N2CCN(C)C(=O)C2)no1` is -14.7%; for `O=C(Cc1ccc(O)c(Cl)c1)N1CCCCC1CCn1cccn1` (configuration not stated) it is -4.41%.
The same measure for `CCc1nc(C)c([C@H]2CN(C)C[C@@H]2C(=O)Nc2ccc(OC)cc2)[nH]1`: -7.07%; for `CN(CCCc1cnn(C)c1)C(=O)C1CCOC1` (configuration not stated): 12.6%; for `CCC(OC)C(=O)N1CCc2nc(NC)nc(C(=O)N3CCCC3)c2C1` (configuration not stated): -5.78%.
The same measure for `CN(C)c1nc2c(c(N3CCC(O)CC3)n1)CN(CC1CCNC1)CC2` (configuration not stated): -11.3%.
Take `CNC(=O)CN(C)c1nc(-c2ccncc2)nc2c1CCN(C(C)=O)C2`: the cytotoxicity at 70.5 h was -6.78%.
The same measure for `COc1cc(C)sc1C(=O)N1CC(c2cccnc2)C1`: -3.92%; for `Cc1[nH]c(=O)[nH]c(=O)c1CN1CCCC(CCc2c(F)cccc2F)C1` (configuration not stated): -12.5%; for `COCCC(=O)N1CCC2(CC1)CC(c1ccccc1)CN(C)C2` (configuration not stated): -5.14%.
The same measure for `CC(C)N1CCC(NCc2cccnc2N(C)C)CC1`: 2.11%; for `Cc1nc(N2CCN(C)CC2)ncc1C(=O)N1CCC(O)(CO)CC1`: -6.38%.
As for `CN(CCCc1cnn(C)c1)C(=O)C1COc2ccccc2C1` (configuration not stated), the cytotoxicity at 70.5 h was -5.74%.
Consider `CCCc1noc(CN(C)C(=O)C2COc3ccccc3C2)n1` (configuration not stated), for which the cytotoxicity at 70.5 h was -16.1%.
In the case of `O=S1(=O)COCCN1Cc1cccc(Cl)c1`, the cytotoxicity at 70.5 h was -8.17%.
The same measure for `CCn1cc(CN2CCCC(CO)(CCc3ccccc3)C2)c(C)n1` (configuration not stated): -7.26%.
The figure for `CCc1cc(NCCc2ccc(O)cc2)n2nccc2n1` is 2.9%.
The same measure for `COc1ccccc1[C@@H]1CN(Cc2cc(C(C)(C)C)[nH]n2)C[C@H]1C(=O)O`: -7.86%.
Turning to `O=C(CCCc1cn[nH]c1)N1C[C@@H](CN2CCOCC2)[C@@H](CO)C1`, the cytotoxicity at 70.5 h was found to be 17.7%.
Regarding `CN(CCc1ccccc1)Cc1cc(C(=O)N2CCCC2(C)C)no1`, the cytotoxicity at 70.5 h is 8.4%.
The same measure for `O=C(c1cnccn1)N1C[C@@H]2CC[C@H](C1)N(C(=O)Cc1ccsc1)C2`: -1.28%; for `COc1ccc(C(=O)C2CCCN(Cc3ccncc3)C2)c(OC)c1` (configuration not stated): -9.3%.
The same measure for `CCN(CC)c1ccc(-c2nc(-c3cccc(OC)c3OC)no2)cn1`: -7.4%.
The same measure for `COC(=O)c1ccc2ccn(CC3CCNC3)c(=O)c2c1` (configuration not stated): -1.63%.
On to `Cc1ccsc1CN(CCN(C)C)Cc1ccccn1`, for which the cytotoxicity at 70.5 h is -4.97%.
As for `Cc1ccccc1CSc1nc(N)cc(N2C[C@H](O)[C@@H](N(C)C)C2)n1`, the cytotoxicity at 70.5 h is -2.01%.
The same measure for `COC(=O)N1C[C@H]2CC[C@@H]1CN(Cc1cscn1)C2`: 1.18%.
The same measure for `CC(C)Oc1cccc(C(=O)C2CCCN(C(=O)c3ncn[nH]3)C2)c1` (configuration not stated): -9.49%.
The figure for `O=C(CN1CCCC(c2ccc(C(=O)O)cc2)C1)NC1CC1` (configuration not stated) is -5.55%; for `COc1ccccc1CN(C)C(=O)c1cc(CN2CCC(O)CC2)on1` it is -0.685%; for `CNC(=O)c1cccc(CNC(=O)C2CC(=O)N(CCN(C)C)C2)c1` (configuration not stated) it is -5.17%.
For the molecule `COCC(O)CNC(=O)c1cnc(-c2ccccc2)nc1O` (configuration not stated), the cytotoxicity at 70.5 h is -11.4%.
The figure for `CCCC(C)CN1CCC(n2cc(C3CCCC3)nn2)CC1` (configuration not stated) is -6.08%; for `CCn1nc(CC(C)C)cc1C(=O)N1C[C@H](O)[C@@H](N2CCCCC2)C1` it is -4.55%; for `CCc1ncc(CNC2CC(=O)N(CCc3cccc(Cl)c3)C2)cn1` (configuration not stated) it is -4.07%.
As to `CCn1c(Cn2cncn2)nnc1C1CCN(Cc2ccncc2)CC1`, the cytotoxicity at 70.5 h is -6.34%.
For `CC(C)c1nccn1CCCNC(=O)c1ccc(N(C)C)nc1`, the cytotoxicity at 70.5 h was -1.73%.
The figure for `Cn1cccc1C(=O)N1CCCN(CCCc2ccccc2)CC1` is 7.34%; for `Cn1c(Cn2ccnc2)nnc1C1CCN(C(=O)C2(C)CC2)CC1` it is -9.41%.
